This is an account of results in ChEMBL document CHEMBL1134228, “Structure-activity analysis of truncated orexin-A analogues at the orexin-1 receptor” (Bioorg Med Chem Lett, 2001).

Activity calls are given as the source filed them. The calls are words filed in the database; no cut-off is given here.

The target in test [1] is T1, Orexin/Hypocretin receptor type 1 (Homo sapiens, UniProt O43613).
T1 sequence (O43613 whole entry): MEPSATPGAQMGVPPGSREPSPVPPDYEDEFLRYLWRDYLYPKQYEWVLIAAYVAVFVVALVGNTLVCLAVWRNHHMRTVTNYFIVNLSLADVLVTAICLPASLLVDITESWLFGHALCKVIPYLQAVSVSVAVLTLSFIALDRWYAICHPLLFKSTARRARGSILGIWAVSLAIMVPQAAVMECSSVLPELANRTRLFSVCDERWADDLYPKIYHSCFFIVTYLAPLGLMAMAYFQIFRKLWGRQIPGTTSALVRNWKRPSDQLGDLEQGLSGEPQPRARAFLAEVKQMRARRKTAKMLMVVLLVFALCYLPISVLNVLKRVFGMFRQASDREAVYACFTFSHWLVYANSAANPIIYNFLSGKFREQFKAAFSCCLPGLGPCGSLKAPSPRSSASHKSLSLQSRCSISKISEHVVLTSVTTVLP
In words: Binding affinity to Orexin receptor type 1 was determined using laser scanning cytometry.

Test [2] is described as follows: Functional potency was determined by concentration required for activation of OX1 (Orexin-1) receptor expressed in chinese hamster ovary cells (CHO) and increasing the intracellular calcium concentration. The test is classed as cell-based. To be noted: Cricetulus griseus. A general note: Calcium assays in cells follow changes in intracellular calcium, usually with a dye or a luminescent sensor.

The subject of test [3] is CHO. As to the kind of experiment: Percentage response for agonist like activity at 10 uM, relative to maximal orexin-A induced response in CHO cells was determined. The test is classed as functional, Cricetulus griseus.
In test [4] the test system is CHO. As to the kind of experiment: Percentage response for agonist like activity at 10 uM, relative to maximal orexin-A induced response in CHO cells was determined; Inactive. The class given is functional, cell-based. To be noted: Cricetulus griseus.
Test [5] addresses T2, Orexin/Hypocretin receptor type 1 (Homo sapiens) (UniProt O43613).
T2 sequence (whole entry): T1 sequence (O43613 whole entry)
In words: Compound was tested for antagonist activity expressed as percentage response at 10 uM, relative to maximal orexin-A induced response against OX1 receptor; IA is Inactive. The class given is functional.

The subject of test [6] is CHO. As to the kind of experiment: Percentage response at 10 uM, relative to maximal orexin-A induced response; Inactive. The class given is functional, cell-based. To be noted: Cricetulus griseus.

`CC[C@H](C)[C@H](NC(=O)CNC(=O)[C@H](C)NC(=O)[C@H](C)NC(=O)[C@H](Cc1cnc[nH]1)NC(=O)[C@H](CC(N)=O)NC(=O)CNC(=O)[C@H](C)NC(=O)CNC(=O)[C@H](Cc1cnc[nH]1)NC(=O)[C@H](CC(C)C)NC(=O)[C@H](CC(C)C)NC(=O)[C@H](CCC(=O)O)NC(=O)[C@H](Cc1ccc(O)cc1)NC(=O)[C@H](CC(C)C)NC(=O)[C@@H](N)CCCNC(=N)N)C(=O)N[C@@H](CC(C)C)C(=O)N[C@H](C(=O)N[C@@H](CC(C)C)C(N)=O)[C@@H](C)O` had an inhibition constant (Ki) in test [1] of 269 nM. Also, the EC50 in test [2] was 355 nM.

Molecule `CC[C@H](C)[C@H](NC(=O)[C@@H](C)NC(=O)[C@H](C)NC(=O)[C@H](C)NC(=O)[C@H](Cc1c[nH]cn1)NC(=O)[C@H](CC(N)=O)NC(=O)CNC(=O)[C@H](C)NC(=O)CNC(=O)[C@H](Cc1c[nH]cn1)NC(=O)[C@H](CC(C)C)NC(=O)[C@H](CC(C)C)NC(=O)[C@H](CCC(=O)O)NC(=O)[C@H](Cc1ccc(O)cc1)NC(=O)[C@H](CC(C)C)NC(=O)[C@@H](N)CCCN=C(N)N)C(=O)N[C@@H](CC(C)C)C(=O)N[C@H](C(=O)N[C@@H](CC(C)C)C(N)=O)[C@@H](C)O` showed an Activity in the test with CHO [3] of 15%.

As to `CC[C@H](C)[C@H](NC(=O)CNC(=O)[C@H](C)NC(=O)[C@H](C)NC(=O)[C@H](Cc1c[nH]cn1)NC(=O)[C@H](CC(N)=O)NC(=O)CNC(=O)[C@H](C)NC(=O)CNC(=O)[C@H](Cc1c[nH]cn1)NC(=O)[C@H](CC(C)C)NC(=O)[C@H](CC(C)C)NC(=O)[C@H](CCC(=O)O)NC(=O)[C@H](Cc1ccc(O)cc1)NC(=O)[C@H](CC(C)C)NC(=O)[C@@H](N)CCCN=C(N)N)C(=O)N[C@@H](CC(C)C)C(=O)N[C@@H](C(=O)N[C@@H](CC(C)C)C(N)=O)[C@@H](C)O`, in the test on CHO [4], the outcome was inactive.

Take H-ALYELLHGAGNHAAGILTL-NH2: the EC50 in test [2] was 347 nM.

In test [1], H-ELLHGAGNHAAGILTL-NH2 had a Ki of 66100 nM. The Activity in the test on CHO [3] is 13%.

Take H-GILTL-NH2: in the test with CHO [4], the outcome was inactive.

On to H-GNHAAGILTL-NH2, for which the outcome in test [5] was inactive.

Regarding H-LLHGAGNHAAGILTL-NH2, in the test on CHO [3], the Activity is on record as 16%.

Consider H-RAYELLHGAGNHAAGILTL-NH2, for which, in the test with CHO [3], the Activity amounted to 71%.

In the case of H-RLAELLHGAGNHAAGILTL-NH2, the EC50 in test [2] was 776 nM.

For the molecule H-RLYALLHGAGNHAAGILTL-NH2, the concentration giving a half-maximal response (EC50) in test [2] is 195 nM.

Regarding H-RLYEALHGAGNHAAGILTL-NH2, the Activity in the test with CHO [3] is reported as 60%.

Turning to H-RLYELAHGAGNHAAGILTL-NH2, the Activity in the test with CHO [3] worked out at 37%.

With H-RLYELLAGAGNHAAGILTL-NH2, in test [2], the half-maximal effective concentration (EC50) is 1290 nM.

Turning to H-RLYELLHAAGNHAAGILTL-NH2, the EC50 in test [2] was 646 nM.

Turning to H-RLYELLHGAANHAAGILTL-NH2, the EC50 in test [2] is 832 nM.

H-RLYELLHGAGNAAAGILTL-NH2 returned an Activity with CHO [3] of 61%.

For the molecule H-RLYELLHGAGNHAAGALTL-NH2, the result in the test with CHO [6] was inactive.

Regarding H-RLYELLHGAGNHAAGIATL-NH2, in the test with CHO [3], the Activity was 12%.

Consider H-RLYELLHGAGNHAAGILAL-NH2, for which, in the test on CHO [3], the Activity was determined as 39%.

For H-RLYELLHGAGNHAAGILTA-NH2, in the test on CHO [3], the Activity was 15%.

With H-YELLHGAGNHAAGILTL-NH2, the Activity in the test with CHO [3] amounted to 40%.

For orientation: Ki means the dissociation constant of the complex between target and ligand, obtained from inhibition or displacement. Lower therefore signals higher affinity. One may read the EC50 as the concentration needed to bring the measured effect to its halfway point.
